Key:
Assay in all cases: NCI60 anticancer drug screen
Format in all cases: cell-based, human
[1] = tested on: UACC-62; settings: UACC-62 (Melanoma), 10 μM, 48 h
From the text: (§1) The aminocaproate-substituted corrole Complex 3 was submitted to NCI for cytotoxic screening at a single high dose (10−5M) in a panel of 60 human tumor cell lines (NCI60). Details of the cytotoxicity assessment in the NCI anticancer drug screen have been described previously, in Monks A, et al. (1991) Feasibility of a high-flux anticancer drug screen using a diverse panel of cultured human tumor cell lines. J Natl Cancer Inst 83(11):757-766, this reference being incorporated by reference for these teachings.
(§2) In view of the promising results observed for carboxylated corroles, Complex 3 was selected for expanded cell screening to uncover additional susceptible cancer cell lines. The cytotoxic activity of Complex 3 was tested at a dose of 10^−5 M against 60 human cancer cell lines representing nine distinct tumor types in the anticancer screening program of the National Cancer Institute (NCI). The in vitro parameters for cytotoxicity, growth percent, and lethality were obtained for Complex 3 and reported as a mean graph of the percent growth of treated cells (FIG. 7). Bars in the mean graph depict the deviation of individual tumor cell lines from the overall mean value for all cells tested. Bars that project to the right of the mean represent cell lines that are more sensitive to Complex 3, whereas cell lines less sensitive to the compound display bars that project to the left.
(§3) The numerical values associated with this assay represent growth relative to the no-drug control and the numbers of cells at time 0 (FIG. 7). This allows detection of both growth inhibition (values between 0 and 100) and lethality (values less than 0). For example, a value of 100 signifies no growth inhibition, 40 means 60% growth inhibition, 0 means no net growth over the course of the experiment, −40 means 40% lethality, and −100 indicates all cells are dead. […] Growth inhibitions reflect cytostatic activity of the compound as previously shown for Complex 2. In contrast, cell lethality is only evident in melanoma cells, specifically the LOX IMVI and SK-MEL-28 cell lines.

[2] = tested on: BT-549; settings: BT-549 (Breast Cancer), 10 μM, 48 h
From the text: as §1, §2, §3

[3] = tested on: SW-620; settings: SW-620 (Colon cancer), 10 μM, 48 h
From the text: as §1, §2, §3

[4] = tested on: HCC-2998; settings: HCC-2998 (Colon cancer), 10 μM, 48 h
From the text: as §1, §2, §3

[5] = tested on: OVCAR-4; settings: OVCAR-4 (Ovarian Cancer), 10 μM, 48 h
From the text: as §1, §2, §3

[6] = tested on: SK-MEL-5; settings: SK-MEL-5 (Melanoma), 10 μM, 48 h
From the text: as §1, §2, §3

[7] = tested on: OVCAR-3; settings: OVCAR-3 (Ovarian Cancer), 10 μM, 48 h
From the text: as §1, §2, §3

[8] = tested on: COLO 205; settings: COLO 205 (Colon cancer), 10 μM, 48 h
From the text: as §1, §2, §3

[9] = tested on: NCI-H23; settings: NCI-H23 (Non-small-cell lung cancer), 10 μM, 48 h
From the text: as §1, §2, §3

[10] = tested on: K-562; settings: K-562 (Leukemia), 10 μM, 48 h
From the text: as §1, §2, §3

[11] = tested on: SK-MEL-2; settings: SK-MEL-2 (Melanoma), 10 μM, 48 h
From the text: as §1, §2, §3

[12] = tested on: TK-10; settings: TK-10 (Renal Cancer), 10 μM, 48 h
From the text: as §1, §2, §3

[13] = tested on: RPMI-8226; settings: RPMI-8226 (Leukemia), 10 μM, 48 h
From the text: as §1, §2, §3

[14] = tested on: MCF7; settings: MCF7 (Breast Cancer), 10 μM, 48 h
From the text: as §1, §2, §3

[15] = tested on: SF-539; settings: SF-539 (CNS Cancer), 10 μM, 48 h
From the text: as §1, §2, §3

[16] = tested on: HCT-116; settings: HCT-116 (Colon cancer), 10 μM, 48 h
From the text: as §1, §2, §3

[17] = tested on: MDA-MB-468; settings: MDA-MB-468 (Breast Cancer), 10 μM, 48 h
From the text: as §1, §2, §3

[18] = tested on: SF-295; settings: SF-295 (CNS Cancer), 10 μM, 48 h
From the text: as §1, §2, §3

[19] = tested on: SR; settings: SR (Leukemia), 10 μM, 48 h
From the text: as §1, §2, §3

[20] = tested on: HPO-92; settings: HPO-92 (Non-small-cell lung cancer), 10 μM, 48 h
From the text: as §1, §2, §3

[21] = tested on: PC-3; settings: PC-3 (Prostate Cancer), 10 μM, 48 h
From the text: as §1, §2, §3

[22] = tested on: DU-145; settings: DU-145 (Prostate Cancer), 10 μM, 48 h
From the text: as §1, §2, §3

[23] = tested on: NCI-H460; settings: NCI-H460 (Non-small-cell lung cancer), 10 μM, 48 h
From the text: as §1, §2, §3

[24] = tested on: NCI-H226; settings: NCI-H226 (Non-small-cell lung cancer), 10 μM, 48 h
From the text: as §1, §2, §3

[25] = tested on: MDA-MB-231/ATCC; settings: MDA-MB-231/ATCC (Breast Cancer), 10 μM, 48 h
From the text: as §1, §2, §3

[26] = tested on: HCT-15; settings: HCT-15 (Colon cancer), 10 μM, 48 h
From the text: as §1, §2, §3

[27] = tested on: HT29; settings: HT29 (Colon cancer), 10 μM, 48 h
From the text: as §1, §2, §3

[28] = tested on: SF-268; settings: SF-268 (CNS Cancer), 10 μM, 48 h
From the text: as §1, §2, §3

O=C(O)CCCCCNc1c(F)c(F)c(C2=C3C=CC4=[N+]3[Ga-]35[n]6c2ccc6C(c2c(F)c(F)c(F)c(F)c2F)=c2ccc([n]23)=C(c2c(F)c(F)c(F)c(F)c2F)c2ccc4[n]25)c(F)c1F (stereo not shown) [Complex 3]
Growth inhibition, % [1]: 91.6%
Growth inhibition, % [2]: 73.0%
Growth inhibition, % [3]: 75.9%
Growth inhibition, % [4]: 60.1%
Growth inhibition, % [5]: 59.9%
Growth inhibition, % [6]: 72.0%
Growth inhibition, % [7]: 75.9%
Growth inhibition, % [8]: 51.7%
Growth inhibition, % [9]: 64.5%
Growth inhibition, % [10]: 72.9%
Growth inhibition, % [11]: 64.1%
Growth inhibition, % [12]: 47.3%
Growth inhibition, % [13]: 70.2%
Growth inhibition, % [14]: 63.1%
Growth inhibition, % [15]: 85.3%
Growth inhibition, % [16]: 75.5%
Growth inhibition, % [17]: 86.3%
Growth inhibition, % [18]: 53.2%
Growth inhibition, % [19]: 87.5%
Growth inhibition, % [20]: 81.6%
Growth inhibition, % [21]: 71.9%
Growth inhibition, % [22]: 64.7%
Growth inhibition, % [23]: 94.2%
Growth inhibition, % [24]: 61.1%
Growth inhibition, % [25]: 72.5%
Growth inhibition, % [26]: 57.0%
Growth inhibition, % [27]: 60.6%
Growth inhibition, % [28]: 65.8%
